Data on 2 compounds can be found in US20230248638A1, “A PERSONAL CARE COMPOSITION COMPRISING ATRACTYLENOLIDE-I OR A SOURCE THEREOF” (Conopco, Inc., d/b/a UNILEVER, priority 2020, published 2023).

This assay concerns Normal human epidermal melanocytes (NHEM). In words: Melanin content quantification in melanocytes. The assay is classed as cell-based. Conditions: 72 hours treatment, concentration as in Treatment column, melanin normalized to relative cell viability. Here is the method: Normal human epidermal melanocytes (NHEM) (Biocell, Xi'an, China) were grown in melanocyte growth medium (MGM, Promocell, Germany) with human melanocyte growth supplement (Promocell, Germany). NHEM cells were seeded at a density of 4×10^4 cells in 500 μL MGM/well in a 24-well plate and incubated for 48 hours in an incubator (Thermo Scientific, Model 3111) at 37° C. with 5% CO2. After 48 hours, media was replaced with fresh media containing test samples (as per Table 1) for the following 72 hours.
After CCK8 absorbance readings were obtained, cells were lysed by lysis buffer at 60° C. for 1 hr. Then, 50 μL cell lysate was transferred to a new 96-well plate and absorbance was measured at 405 nm using TECAN plate reader. Serial dilutions of pure melanin were prepared as references.
The melanin content was calculated from the melanin standard curve. The melanin concentrations (μg/mL) were then normalized to the relative cell viability. The melanin inhibition rates were then calculated using the following equation: […]

For `C=C1CCC[C@]2(C)C=C3OC(=O)C(C)=C3C[C@@H]12` [D, Atractylenolide -1], the “Melanin inhibition rate (% inhibition)” value is recorded as 7.8 ± 2.80 % inhibition.
With `CCCCCCC(O)CCCCCCCCCCC(=O)O` (centres unmarked) [Example B, 12 hydroxystearic acid], the “Melanin inhibition rate (% inhibition)” value was found to be 5.6 ± 3.03 % inhibition.
